MIC, Activity and Ratio data for four compounds are collected here from ChEMBL document CHEMBL5360627, “Total Synthesis of Kuwanons A and B and Discovery of Their Antibacterial Mechanism” (2023).

In experiment [1] the test system is Staphylococcus epidermidis. Nature of the experiment: Antibacterial activity against Staphylococcus epidermidis ATCC 14990 assessed as inhibition of bacterial growth incubated for 24 hrs by Mueller-Hinton broth based assay. In kind it is functional.
The subject of experiment [2] is Staphylococcus aureus. The experiment is described as follows: Antimicrobial activity against Staphylococcus aureus ATCC 29213 assessed as reduction in bacterial growth incubated for 24 hrs by Mueller-Hinton broth based assay. In kind it is functional.
Experiment [3] has as its system Enterococcus faecalis. The experiment is described as follows: Antibacterial activity against Enterococcus faecalis ATCC 29212 assessed as reduction in bacterial growth incubated for 24 hrs by Mueller-Hinton broth based assay. Type of experiment: functional.
The test system of experiment [4] is Bacillus subtilis. Nature of the experiment: Antibacterial activity against Bacillus subtilis ATCC 6633 assessed as reduction in bacterial growth incubated for 24 hrs by Mueller-Hinton broth based assay. In kind it is functional.
Experiment [5] deals with Staphylococcus aureus. Nature of the experiment: Bactericidal activity against Staphylococcus aureus ATCC 29213 assessed as reduction in bacterial growth at 8 times MIC measured at 8 hrs by time-kill assay. Type of experiment: functional.
In experiment [6] the test system is Staphylococcus aureus. Nature of the experiment: Bactericidal activity against Staphylococcus aureus ATCC 29213 assessed as reduction in bacterial growth at 8 microg/ml measured at 2 hrs by time-kill assay. In kind it is functional, organism-based. The note with it: dose 8.0 µg/ml.
In experiment [7] the test system is Staphylococcus aureus. Nature of the experiment: Antibacterial activity against Staphylococcus aureus ATCC 29213 assessed as inhibition of bacterial growth incubated for 18 hrs by CLSI based microdilution method. In kind it is functional.
Experiment [8] has as its system Staphylococcus aureus. The experiment is described as follows: Antibacterial activity against methicillin resistant-Staphylococcus aureus […] assessed as inhibition of bacterial growth incubated for 18 hrs by CLSI based microdilution method. In kind it is functional.
The subject of experiment [9] is Staphylococcus aureus. Nature of the experiment: Potency index, ratio of chloramphenicol MIC to test compound MIC for antimicrobial activity against Staphylococcus aureus ATCC 29213 assessed as reduction in bacterial growth incubated for 24 hrs by Mueller-Hinton broth based assay. In kind it is functional.
Experiment [10] has as its system Staphylococcus epidermidis. Nature of the experiment: Potency index, ratio of chloramphenicol MIC to test compound MIC for antibacterial activity against Staphylococcus epidermidis ATCC 14990 assessed as inhibition of bacterial growth incubated for 24 hrs by Mueller-Hinton broth based assay. Type of experiment: functional.
Experiment [11] has as its system Enterococcus faecalis. Nature of the experiment: Potency index, ratio of chloramphenicol MIC to test compound MIC for antibacterial activity against Enterococcus faecalis ATCC 29212 assessed as reduction in bacterial growth incubated for 24 hrs by Mueller-Hinton broth based assay. Type of experiment: functional.
The test system of experiment [12] is Bacillus subtilis. Nature of the experiment: Potency index, ratio of chloramphenicol MIC to test compound MIC for antibacterial activity against Bacillus subtilis ATCC 6633 assessed as reduction in bacterial growth incubated for 24 hrs by Mueller-Hinton broth based assay. Type of experiment: functional.
Experiment [13] has as its system Staphylococcus aureus. The experiment is described as follows: Bactericidal activity against Staphylococcus aureus ATCC 29213 assessed as inhibition of bacterial growth measured at 8 hrs by time-kill assay. In kind it is functional, organism-based.
Experiment [14] deals with Staphylococcus aureus. The experiment is described as follows: Bactericidal activity against Staphylococcus aureus ATCC 29213 assessed as reduction in bacterial growth at 0.5 to 8 times MIC measured at 24 hrs by time-kill assay. In kind it is functional, organism-based.
The subject of experiment [15] is Staphylococcus aureus. Nature of the experiment: Bactericidal activity against Staphylococcus aureus ATCC 29213 assessed as reduction in bacterial growth at 8 microg/ml measured immediately by time-kill assay. Type of experiment: functional, organism-based. The note with it: dose 8.0 µg/ml.
The test system of experiment [16] is Cell membrane. Nature of the experiment: Induction of cell membrane disruption in Staphylococcus aureus ATCC 29213 assessed as increase in fluorescence intensity at 8 microg/ml incubated for 2 hrs by scanning electron microscopic analysis. Type of experiment: subcellular. The note with it: dose 8.0 µg/ml.
Experiment [17] relates to Cell membrane. Nature of the experiment: Induction of cell membrane disruption in Staphylococcus aureus ATCC 29213 assessed as appearance of round cell at 8 microg/ml incubated for 2 hrs by scanning electron microscopic analysis. The note with it: dose 8.0 µg/ml. Type of experiment: subcellular.
Experiment [18] concerns Cell membrane. Nature of the experiment: Induction of cell membrane disruption in Staphylococcus aureus ATCC 29213 assessed as appearance of wrinkled cell at 8 microg/ml incubated for 2 hrs by scanning electron microscopic analysis. In kind it is subcellular. The note with it: dose 8.0 µg/ml.
Experiment [19] relates to Cell membrane. Nature of the experiment: Induction of cell membrane disruption in Staphylococcus aureus ATCC 29213 assessed as appearance of ruptured cell at 8 microg/ml incubated for 2 hrs by scanning electron microscopic analysis. In kind it is subcellular. Particulars: dose 8.0 µg/ml.
In experiment [20] the test system is Cell membrane. Nature of the experiment: Induction of cell membrane disruption in Staphylococcus aureus ATCC 29213 assessed as appearance of uneven cell at 8 microg/ml incubated for 2 hrs by scanning electron microscopic analysis. Particulars: dose 8.0 µg/ml. In kind it is subcellular.
The test system of experiment [21] is Cell membrane. Nature of the experiment: Disruption of membrane integrity in Staphylococcus aureus ATCC 29213 assessed as increase in green fluorescence at 8 microg/ml incubated for 2 hrs by nuc-green dye based fluorescence microscopic analysis. The note with it: dose 8.0 µg/ml. In kind it is subcellular.
Experiment [22] concerns Cell membrane. Nature of the experiment: Disruption of membrane integrity in Staphylococcus aureus ATCC 29213 assessed as increase in red fluorescence at 8 microg/ml incubated for 2 hrs by EthD-III dye based fluorescence microscopic analysis. In kind it is subcellular. The note with it: dose 8.0 µg/ml.

Structures are written as SMILES. In brackets after ≈: the same amount, converted by molar mass. Activity calls are given as the source filed them. The rule behind the calls is not given here.

Take `CC1(C)S[C@@H]2[C@H](NC(=O)[C@H](N)c3ccccc3)C(=O)N2[C@H]1C(=O)O` [AMPICILLIN]: the minimal inhibitory concentration (MIC) in experiment [1] came to 16 µg/mL (≈ 45.8 µM); in the experiment on Staphylococcus aureus [2], 0.5 µg/mL (≈ 1.43 µM); with Enterococcus faecalis [3], 0.5 µg/mL (≈ 1.43 µM); with Bacillus subtilis [4] it was 8 µg/mL (≈ 22.9 µM). Besides, the Activity in the experiment on Staphylococcus aureus [5] worked out at 5 log10CFU/ml. Further, the outcome in the experiment with Staphylococcus aureus [6] was inactive.
As to `O=C(N[C@H](CO)[C@H](O)c1ccc([N+](=O)[O-])cc1)C(Cl)Cl` [CHLORAMPHENICOL], the MIC in [1] was found to be 8 µg/mL (≈ 24.8 µM); in the experiment with Staphylococcus aureus [2], 16 µg/mL (≈ 49.5 µM); in the experiment on Enterococcus faecalis [3], 8 µg/mL (≈ 24.8 µM); in the experiment on Bacillus subtilis [4], 8 µg/mL (≈ 24.8 µM).
`CC(C)=CCc1c(-c2ccc(O)c3c2OC(C)(C)C=C3)oc2cc(O)cc(O)c2c1=O` [KUWANON A]: the MIC amounted to 8 µg/mL (≈ 19 µM) in the experiment with Staphylococcus aureus [7]; 8 µg/mL (≈ 19 µM) with Staphylococcus aureus [8]; 2 µg/mL (≈ 4.76 µM) in experiment [1]; 4 µg/mL (≈ 9.51 µM) with Staphylococcus aureus [2]; 8 µg/mL (≈ 19 µM) in the experiment on Enterococcus faecalis [3]; 4 µg/mL (≈ 9.51 µM) in the experiment with Bacillus subtilis [4].
Consider `CC(C)=CCc1c(-c2ccc3c(c2O)C=CC(C)(C)O3)oc2cc(O)cc(O)c2c1=O`, for which the minimum inhibitory concentration (MIC) was determined as 4 µg/mL (≈ 9.51 µM) in the experiment with Staphylococcus aureus [7]; 4 µg/mL (≈ 9.51 µM) in the experiment on Staphylococcus aureus [8]; 1 µg/mL (≈ 2.38 µM) in [1]; 1 µg/mL (≈ 2.38 µM) with Staphylococcus aureus [2]; 1 µg/mL (≈ 2.38 µM) in the experiment with Enterococcus faecalis [3]; 1 µg/mL (≈ 2.38 µM) in the experiment with Bacillus subtilis [4]. Further, the Ratio (in the experiment on Staphylococcus aureus [9]; in [10]; with Enterococcus faecalis [11]; in the experiment on Bacillus subtilis [12]) was 8 throughout. Further, the Activity result in the experiment on Staphylococcus aureus [13] was “Dose-Dependent Effect”; in the experiment with Staphylococcus aureus [5], 2 log10CFU/ml. The outcome with Staphylococcus aureus [14] was inactive. Also, the result in the experiment on Staphylococcus aureus [15], with Cell membrane [16], in the experiment with Cell membrane [17], in the experiment on Cell membrane [18], in the experiment on Cell membrane [19] and in the experiment on Cell membrane [20] was Active. The outcome with Cell membrane [21] and with Cell membrane [22] was Active.
